The text below walks through data of US5750530A, “Pharmaceutical diketopiperazine compounds” (Xenova Limited, priority 1994, dated 1998).

The structures appear in SMILES notation. Structures can show the parent of a compound that is named as a salt.

The assay addresses PAI-1 (Homo sapiens, UniProt P05121). Briefly: biochemical. It is filed as biochemical. Conditions: for IC50: PAI chromogenic substrate assay. In short, it runs like this:
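Compound preincubated with PAI-1 before addition to a tPA system; residual tPA converts plasminogen to plasmin, which cleaves chromogenic substrate S2251. Released p-nitroaniline read at 405 nm; values given as % inhibition at set concentrations or IC50.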

Chain of PAI-1 (P05121 24-402): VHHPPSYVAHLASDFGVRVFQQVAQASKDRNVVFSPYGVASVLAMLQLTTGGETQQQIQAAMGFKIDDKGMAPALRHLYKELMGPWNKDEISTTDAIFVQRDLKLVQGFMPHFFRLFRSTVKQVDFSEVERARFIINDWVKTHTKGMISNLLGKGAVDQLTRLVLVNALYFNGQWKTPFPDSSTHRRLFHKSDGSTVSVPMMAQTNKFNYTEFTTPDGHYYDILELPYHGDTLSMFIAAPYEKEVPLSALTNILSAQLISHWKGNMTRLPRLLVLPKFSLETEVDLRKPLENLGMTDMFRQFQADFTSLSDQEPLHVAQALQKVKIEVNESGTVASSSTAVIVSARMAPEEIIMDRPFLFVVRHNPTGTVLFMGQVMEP

In general, % Inhibition refers to the drop in the measured response relative to a control, in per cent. A low value points to little suppression. One may read the IC50 as the concentration needed to halve the response being measured. As for `CN(C)CCSc1ccc(/C=c2\[nH]c(=O)/c(=C/c3ccc(Cl)cc3)[nH]c2=O)cc1` [Compound 5437.HCl, (3Z,6Z)-3-(4-Chlorobenzylidene)-6-(4-(2-dimethylaminoethylthio)benzylidene)-2,5-piperazinedione], the IC50 stood at 16.5 µM. In addition, for the setting “5 μm”, the “% Inhibition” value came out at 18%. The “% Inhibition” value (20 μm) stood at 44%.
The like results for `COC(=O)c1ccc(/C=c2\[nH]c(=O)/c(=C/c3ccc(SCCN(C)C)s3)[nH]c2=O)cc1` [Compound 5477, (3Z,6Z)-3-(5-(2-Dimethylaminoethylthio)-2-thienyl)methylene-6-(4-methoxycarbonylbenzylidene)-2,5-piperazinedione] were, in that order, 20 µM, 10% and 59%.
Molecule `CN(C)CCSc1ccc(/C=c2\[nH]c(=O)/c(=C/c3ccc(Cl)c(Cl)c3)[nH]c2=O)cc1` [Compound 5465.HCl, (3Z,6Z)-3-(3,4-Dichlorobenzylidene)-6-(4-(2-dimethylaminoethylthio)benzylidene)-2,5-piperazinedione] showed an IC50 of 2.6 µM. Besides, the “% Inhibition” value (5 μm) turned out to be 42%. Further, the “% Inhibition” value (20 μm) was determined as 76%.
`CN(C)CCSc1ccc(/C=c2\[nH]c(=O)/c(=C/c3ccnc4ccccc34)[nH]c2=O)s1` [Compound 5307.HCl, (3Z,6Z)-6-(5-(2-Dimethylaminoethylthio)-2-thienyl)methylene-3-(4-quinolylmethylene)-2,5-piperazinedione] registered an IC50 of 18 µM.
`CN(C)CCSc1ccc(/C=c2\[nH]c(=O)/c(=C/c3cn(C)c4ccccc34)[nH]c2=O)cc1` [Compound 5497.HCl, (3Z,6Z)-6-(4-(2-Dimethylaminoethylthio)benzylidene)-3-(1-methyl-3-indolyl)methylene-2,5-piperazinedione] showed an IC50 of 11.5 µM. Moreover, for the setting “5 μm”, the “% Inhibition” value turned out to be 12%. Further, the “% Inhibition” value (20 μm) is on record as 59%.
The like results for `CN(C)CCSc1ccc(/C=c2\[nH]c(=O)/c(=C/c3ccc(Br)cc3)[nH]c2=O)cc1` [Compound 5480, (3Z,6Z)-3-(4-Bromobenzylidene)-6-(4-(2-dimethylaminoethylthio)benzylidene)-2,5-piperazinedione] were, in that order, 5.2 µM, 53% and 74%.
In the same order, the values of `COc1ccc(/C=c2\[nH]c(=O)/c(=C/c3ccc(SCCN(C)C)cc3)[nH]c2=O)cc1` [Compound 5479, (3Z,6Z)-3-(4-(2-Dimethylaminoethylthio)benzylidene)-6-(4-methoxybenzylidene)-2,5-piperazinedione] are 4.3 µM, 66% and 70%.
With `CN(C)CCSc1ccc(/C=c2\[nH]c(=O)/c(=C/c3ccccn3)[nH]c2=O)s1` [Compound 5471, (3Z,6Z)-6-(5-(2-Dimethylaminoethylthio)-2-thienyl)methylene-3-(2-pyridylmethylene)-2,5-piperazinedione], the “% Inhibition” value (5 μm) amounted to 0% and the “% Inhibition” value (20 μm) is listed as 1%.
In the same order, the values of `CN(C)CCSc1ccc(/C=c2\[nH]c(=O)/c(=C/c3ccc([N+](=O)[O-])cc3)[nH]c2=O)cc1` [Compound 5461.HCl, (3Z,6Z)-3-(4-(2-Dimethylaminoethylthio)benzylidene)-6-(4-nitrobenzylidene)-2,5-piperazinedione] are 10% and 56%.
In the same order, the values of `CN(C)CCSc1ccc(/C=c2\[nH]c(=O)/c(=C/c3ccc(C(C)(C)C)cc3)[nH]c2=O)cc1` [Compound 5440, (3Z,6Z)-3-(4-(2-Dimethylaminoethylthio)benzylidene)-6-(4-tert-butylbenzylidene)-2,5-piperazinedione] are 11% and 30%.
Consider `CN(C)CCSc1ccc(/C=c2\[nH]c(=O)/c(=C/c3ccc4c(c3)OCO4)[nH]c2=O)cc1` [Compound 5491, (3Z,6Z)-6-(4-(2-Dimethylaminoethylthio)benzylidene)-3-(3,4-methylenedioxybenzylidene)-2,5-piperazinedione], for which inhibition was half-maximal at 14.2 µM (IC50). Besides, the “% Inhibition” value (5 μm) came to 0%. Besides, for the setting “20 μm”, the “% Inhibition” value was determined as 65%.
In the case of `CN(C)CCSc1ccc(/C=c2\[nH]c(=O)/c(=C/c3ccncc3)[nH]c2=O)s1` [Compound 5472, (3Z,6Z)-6-(5-(2-Dimethylaminoethylthio)-2-thienyl)methylene-3-(4-pyridylmethylene)-2,5-piperazinedione], the “% Inhibition” value (5 μm) was found to be 0% and the “% Inhibition” value (20 μm) stood at 22%.
As to `CN(C)CCSc1ccc(/C=c2\[nH]c(=O)/c(=C/c3ccsc3)[nH]c2=O)cc1` [Compound 5133.HCl, (3Z,6Z)-6-(4-(2-Dimethylaminoethylthio)benzylidene)-3-(3-thienylmethylene)-2,5-piperazinedione], the IC50 stood at 3 µM. Besides, the “% Inhibition” value (20 μm) came to 66%. The “% Inhibition” value (100 μm) amounted to 24%.
In the same order, the values of `CN(C)CCSc1ccc(/C=c2\[nH]c(=O)/c(=C/c3ccc(N(C)C)cc3)[nH]c2=O)s1` [Compound 5280, (3Z,6Z)-6-(4-Dimethylaminobenzylidene)-3-(5-(2-dimethylaminoethylthio)-2-thienyl)methylene-2,5-piperazinedione] are 20 µM, 82% and 99%.
Molecule `CN(C)CCSc1ccc(/C=c2\[nH]c(=O)/c(=C/c3cccc(OCc4ccccc4)c3)[nH]c2=O)s1` [Compound 5487, (3Z,6Z)-6-(3-Benzyloxybenzylidene)-3-(5-(2-dimethylaminoethylthio)-2-thienyl)methylene-2,5-piperazinedione] had an IC50 of 8.6 µM. Moreover, for the setting “5 μm”, the “% Inhibition” value was found to be 15%. The “% Inhibition” value (20 μm) was 60%.
`CN(C)CCSc1ccc(/C=c2\[nH]c(=O)/c(=C/c3ccc(OCc4ccccc4)cc3)[nH]c2=O)cc1` [Compound 5481, (3Z,6Z)-3-(4-Benzyloxybenzylidene)-6-(4-(2-dimethylaminoethylthio)benzylidene)-2,5-piperazinedione] registered an IC50 of 20 µM. For the same molecule, the “% Inhibition” value (5 μm) is recorded as 9%. Further, the “% Inhibition” value (20 μm) stood at 56%.
On to `CN(C)CCSc1ccc(/C=c2\[nH]c(=O)/c(=C/c3ccc4c(c3)OCO4)[nH]c2=O)s1` [Compound 5279.HCl, (3Z,6Z)-3-(5-(2-Dimethylaminoethylthio)-2-thienyl)methylene-6-(3,4-methylenedioxybenzylidene)-2,5-piperazinedione], for which the IC50 turned out to be 13 µM. In other words, the double-digit micromolar range.
The molecule `CN(C)CCSc1ccc(/C=c2\[nH]c(=O)/c(=C/c3ccc(Cl)cc3)[nH]c2=O)cc1` [Compound 5437, (3Z,6Z)-3-(4-Chlorobenzylidene)-6-(4-(2-dimethylaminoethylthio)benzylidene)-2,5-piperazinedione] yielded an IC50 of 20 µM. Also, where the note is “5 μm”, the “% Inhibition” value was 8%. Besides, under “20 μm”, the “% Inhibition” value stood at 41%.
`CN(C)CCSc1ccc(/C=c2\[nH]c(=O)/c(=C/c3ccc(C#N)cc3)[nH]c2=O)cc1` [Compound 5462.HCl, (3Z,6Z)-3-(4-Cyanobenzylidene)-6-(4-(2-dimethylaminoethylthio)benzylidene)-2,5-piperazinedione]: the “% Inhibition” value amounted to 45% (5 μm) and 41% (20 μm).
The like results for `CN(C)CCSc1ccc(/C=c2\[nH]c(=O)/c(=C/c3ccc(C#N)cc3)[nH]c2=O)cc1` [Compound 5462, (3Z,6Z)-3-(4-Cyanobenzylidene)-6-(4-(2-dimethylaminoethylthio)benzylidene)-2,5-piperazinedione] were, in that order, 41% and 43%.
Molecule `CN(C)CCSc1ccc(/C=c2\[nH]c(=O)/c(=C/c3ccc(OCc4ccccc4)cc3)[nH]c2=O)s1` [Compound 5482, (3Z,6Z)-6-(4-Benzyloxybenzylidene)-3-(5-(2-dimethylaminoethylthio)-2-thienyl)methylene-2,5-piperazinedione] displayed an IC50 of 20 µM. Also, the “% Inhibition” value (5 μm) came to 12%. Moreover, the “% Inhibition” value (20 μm) is 50%.
Take `CN(C)CCSc1ccc(/C=c2\[nH]c(=O)/c(=C/c3cccc(C(F)(F)F)c3)[nH]c2=O)s1` [Compound 5315, (3Z,6Z)-3-(5-(2-Dimethylaminoethylthio)-2-thienyl)methylene-6-(3-trifluoromethylbenzylidene)-2,5-piperazinedione]: the IC50 amounted to 20 µM. This lies in the double-digit micromolar range.
The molecule `CN(C)CCSc1ccc(/C=c2\[nH]c(=O)/c(=C/CC3CCCC(C)(C)C3)[nH]c2=O)s1` (centres unmarked) [Compound 5455, (3Z,6Z)-3-(5-(2-Dimethylaminoethylthio)-2-thienyl)methylene-6-(2-(3,3-dimethylcyclohexyl)ethylidene)-2,5-piperazinedione] displayed an IC50 of 6.5 µM. Further, the “% Inhibition” value (5 μm) was 30%. Also, the “% Inhibition” value (20 μm) turned out to be 59%.
`CN(C)CCSc1sc(/C=c2\[nH]c(=O)/c(=C/c3ccccc3)[nH]c2=O)cc1[N+](=O)[O-]` [Compound 5403.HCl, (3Z,6Z)-6-Benzylidene-3-(5-(2-dimethylaminoethylthio)-4-nitro-2-thienyl)methylene-2,5-piperazinedione]: the “% Inhibition” value (5 μm) came to 12% and the “% Inhibition” value (20 μm) is 60%.
The like results for `CN(C)CCSc1ccc(/C=c2\[nH]c(=O)/c(=C/c3cccc(C#N)c3)[nH]c2=O)cc1` [Compound 5476, (3Z,6Z)-3-(3-Cyanobenzylidene)-6-(4-(2-dimethylaminoethylthio)benzylidene)-2,5-piperazinedione] were, in that order, 21% and 38%.
In turn, `CN(C)CCSc1ccc(/C=c2\[nH]c(=O)/c(=C/c3ccc(C(F)(F)F)cc3)[nH]c2=O)cc1` [Compound 5294, (3Z,6Z)-3-(4-(2-Dimethylaminoethylthio)benzylidene)-6-(4-trifluoromethylbenzylidene)-2,5-piperazinedione] came in with an IC50 of 2.5 µM.
